Data: patent publication US20070149519A1, “Benzimidazol substituted thiopene derivatives with activity on ikk3” (priority 2004, published 2007)

The molecules below were run against T1, Recombinant human IKK3 (Homo sapiens, UniProt Q14164) (assay: IKK3 TR-FRET kinase assay). Settings: IKK3 15 nM, GST-IκBα 25 nM, ATP 2 μM, 15 minutes at room temperature.
T1 construct: FLAG; made in house
T1 sequence (Q14164 1-716): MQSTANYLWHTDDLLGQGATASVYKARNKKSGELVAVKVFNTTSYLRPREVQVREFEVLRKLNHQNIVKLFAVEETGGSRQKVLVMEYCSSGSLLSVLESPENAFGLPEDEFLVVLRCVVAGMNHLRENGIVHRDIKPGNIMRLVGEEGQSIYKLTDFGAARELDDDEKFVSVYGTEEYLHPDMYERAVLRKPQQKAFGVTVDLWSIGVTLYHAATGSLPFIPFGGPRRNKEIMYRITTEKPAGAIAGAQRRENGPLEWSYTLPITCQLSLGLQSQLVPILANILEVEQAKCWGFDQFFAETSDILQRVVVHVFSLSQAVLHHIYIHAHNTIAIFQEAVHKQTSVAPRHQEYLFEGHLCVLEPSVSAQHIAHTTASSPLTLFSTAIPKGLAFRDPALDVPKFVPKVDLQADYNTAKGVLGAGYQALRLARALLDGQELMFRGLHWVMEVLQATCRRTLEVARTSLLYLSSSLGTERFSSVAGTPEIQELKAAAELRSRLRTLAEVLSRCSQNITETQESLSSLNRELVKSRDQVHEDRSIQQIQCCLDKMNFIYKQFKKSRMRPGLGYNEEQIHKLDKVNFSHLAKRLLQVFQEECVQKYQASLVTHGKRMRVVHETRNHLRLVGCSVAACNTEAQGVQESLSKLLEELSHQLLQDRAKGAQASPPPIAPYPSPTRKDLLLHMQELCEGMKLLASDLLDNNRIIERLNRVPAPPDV
Format: biochemical
Method: Recombinant human IKK3 was expressed in baculovirus as a FLAG tagged fusion protein, and its activity was assessed using a time-resolved fluorescence resonance energy transfer (TR-FRET) assay. Briefly, IKK3 (15 nM final) diluted in assay buffer (50 mM HEPES, 10 mM MgCl2, 1 mM CHAPS pH 7.4 with 1 mM DTT and 0.01% w/v BSA) was added to wells containing various concentrations of compound or DMSO vehicle (3% final). The reaction was initiated by the addition of GST-IκBα substrate (25 nM final)/ATP (2 μM final), in a total volume of 30 μl. The reaction was incubated for 15 minutes at room temperature, then terminated by the addition of 15 μl of 50 mM EDTA. Detection reagent (15 μl) in buffer (100 mM HEPES pH 7.4, 150 mM NaCl and 0.1% w/v BSA) containing antiphosphoserine-IκBα-32/36 monoclonal antibody 12C2 (Cell Signalling Technology, Massachusetts, USA) labelled with W-1024 europium chelate (Wallac OY, Turku, Finland), and an APC-labelled anti-GST antibody (Prozyme, San Leandro, Calif., USA) was added and the reaction was further incubated for 45 minutes at room temperature. The degree of phosphorylation of GST-IκBα was measured using a Packard Discovery plate reader (Perkin-Elmer Life Sciences, Pangbourne, UK) as a ratio of specific 665 nm energy transfer signal to reference europium 620 nm signal.
For COc1cc2ncn(-c3cc(OCc4ccc(CO)cc4)c(C#N)s3)c2cc1OC [Example 1, 5-[5,6-Bis(methyloxy)-1H-benzimidazol-1-yl]-3-({[4-(hydroxymethyl)phenyl]methyl}oxy)-2-thiophenecarbonitrile], the IC50 was under 1 µM.
COc1cc2ncn(-c3cc(O[C@H](C)c4ccccc4Cl)c(C#N)s3)c2cc1OC [Example 2, 5-[5,6-Bis(methyloxy)-1H-benzimidazol-1-yl]-3-{[(1R)-1-(2-chlorophenyl)ethyl]oxy}-2-thiophenecarbonitrile] was tested, and the IC50 was 1 to 10 µM.
Molecule Cc1ccccc1COc1cc(-n2cnc3ccccc32)sc1C#N [Example 3, 5-(1H-Benzimidazol-1-yl)-3-{[(2-methylphenyl)methyl]oxy}-2-thiophenecarbonitrile] has an IC50 of under 1 µM.
N#Cc1sc(-n2cnc3ccccc32)cc1OCc1ccccc1 [Example 4, 5-(1H-Benzimidazol-1-yl)-3-[(phenylmethyl)oxy]-2-thiophenecarbonitrile] was tested, and the IC50 was 1 to 10 µM.
COc1cc2ncn(-c3cc(OCc4ccccc4C(F)(F)F)c(C#N)s3)c2cc1OC [Example 5, 5-[5,6-Bis(methyloxy)-1H-benzimidazol-1-yl]-3-({[2-(trifluoromethyl)phenyl]methyl}oxy)-2-thiophenecarbonitrile] was tested, and the IC50 was under 1 µM.
COc1cc2ncn(-c3cc(OCc4ccc5nnn(C)c5c4)c(C#N)s3)c2cc1OC [Example 6, 5-[5,6-bis(methyloxy)-1H-benzimidazol-1-yl]-3-{[(1-methyl-1H-1,2,3-benzotriazol-6-yl)methyl]oxy}-2-thiophenecarbonitrile] was tested, and the IC50 was under 1 µM.
COc1cc2c(cc1OCCN1CCOCC1)ncn2-c1cc(OCc2ccccc2C(F)(F)F)c(C#N)s1 [Example 7, 5-(6-(Methyloxy)-5-([2-(4-morpholinyl)ethyl]oxy)-1H-benzimidazol-1-yl)-3-({[2-(trifluoromethyl)phenyl]methyl}oxy)-2-thiophene carbonitrile] gave an IC50 of under 1 µM.
COc1cc2ncn(-c3cc(OCc4cc(F)ccc4F)c(C#N)s3)c2cc1OC [Example 8, 5-[5,6-Bis(methyloxy)-1H-benzimidazol-1-yl]-3-{[(2,5-difluorophenyl)methyl]oxy}-2-thiophenecarbonitrile] gave an IC50 of under 1 µM.
In the case of COc1cc2ncn(-c3cc(OCc4ccccc4S(C)(=O)=O)c(C#N)s3)c2cc1OC [Example 9, 5-[5,6-Bis(methyloxy)-1H-benzimidazol-1-yl]-3-({[2-(methylsulfonyl)phenyl]methyl}oxy)-2-thiophenecarbonitrile], the IC50 is reported as under 1 µM.
Molecule N#Cc1sc(-n2cnc3cc(Cl)ccc32)cc1OCc1ccccc1 [Example 10, 5-(5-Chloro-1H-benzimidazol-1-yl)-3-[(phenylmethyl)oxy]-2-thiophenecarbonitrile] has an IC50 of 1 to 10 µM.
Molecule COc1cc2ncn(-c3cc(OCc4c(F)cccc4F)c(C#N)s3)c2cc1OC [Example 11, 5-[5,6-bis(Methyloxy)-1H-benzimidazol-1-yl]-3-{[(2,6-difluorophenyl)methyl]oxy}-2-thiophenecarbonitrile] has an IC50 of under 1 µM.
COc1cc2c(cc1OCCCO)ncn2-c1cc(OCc2ccccc2C(F)(F)F)c(C#N)s1 [Example 12, 5-[5-[(3-Hvdroxypropyl)oxy]-6-(methyloxy)-1H-benzimidazol-1-yl]-3-({[2-(trifluoromethyl)phenyl]methyl}oxy)-2-thiophenecarbonitrile] was tested, and the IC50 was under 1 µM.
With COc1cc2ncn(-c3cc(OCc4ccncc4Br)c(C#N)s3)c2cc1OC [Example 13, 5-[5,6-Bis(methyloxy)-1H-benzimidazol-1-yl]-3-{[(3-bromo-4-pyridinyl)methyl]oxy}-2-thiophenecarbonitrile] the IC50 was 1 to 10 µM.
COc1cc2ncn(-c3cc(OCC4CCCCC4)c(C#N)s3)c2cc1OC [Example 14, 5-[5,6-Bis(methyloxy)-1H-benzimidazol-1-yl]-3-[(cyclohexylmethyl)oxy]-2-thiophenecarbonitrile] was tested, and the IC50 was under 1 µM.
Work on N#Cc1sc(-n2cnc3cc(C(=O)NCCN4CCOCC4)ccc32)cc1OCc1ccccc1C(F)(F)F [Example 15, 1-[5-cyano-4-({[2-(trifluoromethyl)phenyl]methyl}oxy)-2-thienyl]-N-[2-(4-morpholinyl)ethyl]-1H-benzimidazole-5-carboxamide] yielded an IC50 of under 1 µM.
With COc1cc2ncn(-c3cc(O[C@H](C)c4ccccc4C(F)(F)F)c(C#N)s3)c2cc1OC [Example 16, 5-[5,6-Bis(methyloxy)-1H-benzimidazol-1-yl]-3-({(1 R)-1-[2-(trifluoromethyl)phenyl]ethyl}oxy)-2-thiophenecarbonitrile] the IC50 was 1 to 10 µM.
COc1cc2ncn(-c3cc(OCCc4ccccc4)c(C#N)s3)c2cc1OC [Example 17, 5-[5,6-bis(methyloxy)-1H-benzimidazol-1-yl]-3-[(2-phenylethyl)oxy}-2-thiophenecarbonitrile] gave an IC50 of under 1 µM.
For COc1cc2ncn(-c3cc(OCc4ccccc4OC(F)(F)F)c(C#N)s3)c2cc1OC [Example 18, 5-[5,6-bis(methyloxy)-1H-benzimidazol-1-yl]-3-[({2-[(trifluoromethyl)oxy]phenyl}methyl)oxy]-2-thiophenecarbonitrile], the IC50 was under 1 µM.
With COc1ccccc1COc1cc(-n2cnc3cc(OC)c(OC)cc32)sc1C#N [Example 19, 5-[5,6-bis(methyloxy)-1H-benzimidazol-1-yl]-3-({[2-(methyloxy)phenyl]methyl}oxy)-2-thiophenecarbonitrile] the IC50 was 1 to 10 µM.
COc1cc2ncn(-c3cc(OCCN4CCOCC4)c(C#N)s3)c2cc1OC [Example 20, 5-[5,6-bis(methyloxy)-1H-benzimidazol-1-yl]-3-{[2-(4-morpholinyl)ethyl]oxy}-2-thiophenecarbonitrile] gave an IC50 of 1 to 10 µM.
COc1cc2ncn(-c3cc(OCCN4CCCC4=O)c(C#N)s3)c2cc1OC [Example 21, 5-[5,6-bis(methyloxy)-1H-benzimidazol-1-yl]-3-{[2-(2-oxo-1-pyrrolidinyl)ethyl]oxy}-2-thiophenecarbonitrile] was tested, and the IC50 was under 1 µM.
COc1cc2ncn(-c3cc(OCC4CCCO4)c(C#N)s3)c2cc1OC (stereo not shown) [Example 22, 5-[5,6-bis(methyloxy)-1H-benzimidazol-1-yl]-3-[(tetrahydro-2-furanylmethyl)oxy]-2-thiophenecarbonitrile] gave an IC50 of 1 to 10 µM.
In the case of COc1cc2ncn(-c3cc(OCC4CCCCO4)c(C#N)s3)c2cc1OC (stereo not shown) [Example 23, 5-[5,6-bis(methyloxy)-1H-benzimidazol-1-yl]-3-[(tetrahydro-2 H-pyran-2-ylmethyl)oxy]-2-thiophenecarbonitrile], the IC50 is reported as under 1 µM.
Molecule COc1cc2ncn(-c3cc(OCCOc4ccccc4)c(C#N)s3)c2cc1OC [Example 24, 5-[5,6-bis(methyloxy)-1H-benzimidazol-1-yl]-3-{[2-(phenyloxy)ethyl]oxy}-2-thiophenecarbonitrile] has an IC50 of under 1 µM.
CCC[C@H](Oc1cc(-n2cnc3cc(OC)c(OC)cc32)sc1C#N)c1ccccc1Cl [Example 25, 5-[5,6-bis(methyloxy)-1H-benzimidazol-1-yl]-3-{[(1S)-1-(2-chlorophenyl)butyl]oxy}-2-thiophenecarbonitrile] showed an IC50 of under 1 µM.
With COc1cc2ncn(-c3cc(OCc4ccsc4)c(C#N)s3)c2cc1OC [Example 26, 5-[5,6-bis(methyloxy)-1H-benzimidazol-1-yl]-3-[(3-thienylmethyl)oxy]-2-thiophenecarbonitrile] the IC50 was under 1 µM.
COc1cc2ncn(-c3cc(OCc4cccs4)c(C#N)s3)c2cc1OC [Example 27, 5-[5,6-bis(methyloxy)-1H-benzimidazol-1-yl]-3-[(2-thienylmethyl)oxy]-2-thiophenecarbonitrile] gave an IC50 of under 1 µM.
CC[C@@H](C)Oc1cc(-n2cnc3cc(OC)c(OC)cc32)sc1C#N [Example 28, 5-[5,6-bis(methyloxy)-1H-benzimidazol-1-yl]-3-{[(1 R)-1-methylpropyl]oxy}-2-thiophenecarbonitrile] showed an IC50 of 1 to 10 µM.
